Assay results from US5721207A, “Method for treatment of pain” (Innapharma, Inc., priority 1995, dated 1998).
Like-named read-outs stand apart in the source and are kept apart here. Ends that are not written are not given here.

Key:
[1] = epidural administration; cited from earlier work

Description for rat: Intrathecal catheters were surgically implanted in the rats after application of anesthetic (Nembutal, 30 mg/kg, intraperitoneal) 5-7 days prior to the test procedure. The 5-7 day period prior to testing allowed for full recovery from the surgical procedures. […] Each catheter was anchored to the skull with cyanoacrylate adhesive, and the skull was closed with wound clips. The free end of each catheter was heat annealed; when compositions were to be injected via the intrathecal route each composition was introduced therein using a Hamilton needle inserted into the sealed catheter.
Pain sensitivity was assessed using a standard analgesiometric hot plate test (Woolfe and MacDonald (1944) J. Pharmacol. Exp. Ther. 80:300). The hot plate response was determined by placing a rat on a 55° C. copper hot plate enclosed in a plexiglass cylinder.
Because of the technical demands of these experiments, no more than 8-9 rats were tested on a given day. Sufficient animals were studied to obtain 10-11 evaluable rats per test condition. On the study day, animals were tested for baseline hot plate responses, and then received bolus injections of test analgesic or physiological saline (control). Hot plate responses were assessed again at 15 min, 30 min, 1 hr, 3 hr, 6 hr and 24 hr after intrathecal injection of test compound or vehicle control.
Ninety-six (96) rats, ranging in weight from 320 g to 420 g, were used in this study. Catheters were implanted and recovery was allowed for as described hereinabove. […] Drug or saline vehicle doses were administered using Hamilton needles inserted into the catheters, with a dose volumes of 37.5 μL/kg followed by a 10 μL saline catheter wash-out. Baseline (pre-drug) and responses at 15 min, 30 min, 1 hr, 3 hr, 6 hr and 24 hr after drug or vehicle injection were determined.

For `CN1CC[C@]23c4c5ccc(O)c4O[C@H]2[C@@H](O)C=C[C@H]3[C@H]1C5.O=S(=O)(O)O` [Morphine, Morphine sulfate], which “Hot Plate Latency (Mean ± SEM)” value (rat; 37.5 μg/kg (49.42 nmol/kg) intrathecal single, 0 hr (baseline)) is on record?
The value was 12.81 ± 1.23 s.

And the “Hot Plate Latency (Mean ± SEM)” value (rat; 37.5 μg/kg (49.42 nmol/kg) intrathecal single, 0.25 hr)?
The value was 22.08 ± 2.68 s.

What about the “Hot Plate Latency (Mean ± SEM)” value (rat; 37.5 μg/kg (49.42 nmol/kg) intrathecal single, 0.5 hr) of the same molecule?
The value was 20.97 ± 2.56 s.

What about the “Hot Plate Latency (Mean ± SEM)” value (rat; 37.5 μg/kg (49.42 nmol/kg) intrathecal single, 1 hr) of the same molecule?
The value was 21.81 ± 2.46 s.

And the “Hot Plate Latency (Mean ± SEM)” value (rat; 37.5 μg/kg (49.42 nmol/kg) intrathecal single, 3 hr)?
Its value is 19.97 ± 2.05 s.

What about the “Hot Plate Latency (Mean ± SEM)” value (rat; 37.5 μg/kg (49.42 nmol/kg) intrathecal single, 6 hr) of the same molecule?
Its value is 14.02 s.

What about the “Hot Plate Latency (Mean ± SEM)” value (rat; 37.5 μg/kg (49.42 nmol/kg) intrathecal single, 24 hr) of the same molecule?
The value was 11.33 ± 1.51 s.

What about the “Hot Plate Latency (Mean ± SEM)” value (rat; 75.0 μg/kg (98.84 nmol/kg) intrathecal single, 0 hr (baseline)) of the same molecule?
Its value is 13.76 ± 1.27 s.

What about the “Hot Plate Latency (Mean ± SEM)” value (rat; 75.0 μg/kg (98.84 nmol/kg) intrathecal single, 0.25 hr) of the same molecule?
Its value is 22.76 ± 2.43 s.

And the “Hot Plate Latency (Mean ± SEM)” value (rat; 75.0 μg/kg (98.84 nmol/kg) intrathecal single, 0.5 hr)?
Its value is 21.86 ± 2.25 s.

And the “Hot Plate Latency (Mean ± SEM)” value (rat; 75.0 μg/kg (98.84 nmol/kg) intrathecal single, 1 hr)?
Its value is 19.88 ± 2.04 s.

What about the “Hot Plate Latency (Mean ± SEM)” value (rat; 75.0 μg/kg (98.84 nmol/kg) intrathecal single, 3 hr) of the same molecule?
The value was 17.42 ± 1.93 s.

What about the “Hot Plate Latency (Mean ± SEM)” value (rat; 75.0 μg/kg (98.84 nmol/kg) intrathecal single, 6 hr) of the same molecule?
The value was 17.66 s.

And the “Hot Plate Latency (Mean ± SEM)” value (rat; 75.0 μg/kg (98.84 nmol/kg) intrathecal single, 24 hr)?
Its value is 12.60 ± 1.19 s.

What about the “Hot Plate Latency (Mean ± SEM)” value (rat; 125.0 μg/kg (164.73 nmol/kg) intrathecal single, 0 hr (baseline)) of the same molecule?
Its value is 13.28 ± 1.35 s.

And the “Hot Plate Latency (Mean ± SEM)” value (rat; 125.0 μg/kg (164.73 nmol/kg) intrathecal single, 0.25 hr)?
Its value is 19.4 ± 1.6 s.

And the “Hot Plate Latency (Mean ± SEM)” value (rat; 125.0 μg/kg (164.73 nmol/kg) intrathecal single, 0.5 hr)?
Its value is 26.36 ± 4.20 s.

And the “Hot Plate Latency (Mean ± SEM)” value (rat; 125.0 μg/kg (164.73 nmol/kg) intrathecal single, 1 hr)?
Its value is 26.83 ± 3.04 s.

What about the “Hot Plate Latency (Mean ± SEM)” value (rat; 125.0 μg/kg (164.73 nmol/kg) intrathecal single, 3 hr) of the same molecule?
Its value is 21.69 ± 3.62 s.

And the “Hot Plate Latency (Mean ± SEM)” value (rat; 125.0 μg/kg (164.73 nmol/kg) intrathecal single, 6 hr)?
The value was 15.86 s.

What about the “Hot Plate Latency (Mean ± SEM)” value (rat; 125.0 μg/kg (164.73 nmol/kg) intrathecal single, 24 hr) of the same molecule?
Its value is 13.49 s.

What about the “onset of antinociception/analgesia post-injection” value (rat; intrathecal, all tested doses) of the same molecule?
The value was no more than 15 min.

And the “dose relation of hot plate latency” value (rat; intrathecal, all three doses (37.5, 75.0, 125.0 μg/kg))?
Its value is “increased hot plate latency in a dose-related fashion”.

What about the “peak levels of analgesia compared with elcatonin” value (rat; intrathecal, doses used in this study) of the same molecule?
Its value is “generally lower”.

What about the “time of return toward baseline hot plate scores” value (rat; intrathecal, post-injection, particularly lower doses) of the same molecule?
Its value is no more than 6 h.

For “salmon calcitonin: salmon calcitonin, sequence given as SEQ ID No 4 (CSNLSTCVLGKLSQELHKLQTYPRTNTGSGTP; ends and bridges not checked; cysteine pairing not given here)”, which “use as an analgesic in intractable pain” value [1] is on record?
The value was “the data did not appear to support its use as an analgesic”.
